Measured values taken from article PMC6216040, “Repurposing of an old drug: In vitro and in vivo efficacies of buparvaquone against Echinococcus multilocularis” (International Journal for Parasitology: Drugs and Drug …, 2018).

System: E. multilocularis metacestodes
Experiment: PGI-assay: drug-induced damage on in vitro cultured metacestodes (Pathogen Box screening cascade and EC50)
Type: cell-based, Echinococcus multilocularis
Conditions: for PGI release, % of the Tx-100 control, 5d / PGI release, % of the Tx-100 control, 12d: 10 µM, singlets; for PGI release, % of the Tx-100 control, 5d / PGI release, % of Tx-100 control, average, 5d: 5 days of incubation; for PGI release, % of the Tx-100 control, 12d / PGI release, % of Tx-100 control, average, 12d: 12 days of incubation; for PGI release, % of Tx-100 control, average, 5d / PGI release, % of Tx-100 control, average, 12d: confirmatory screening at 10 µM in triplicates, values as % of Tx-100 control

Cc1ccc2cc(C3NC(=O)c4ccccc4N3)c(Cl)nc2c1 (stereo not shown) [MMV019807]
PGI release, % of the Tx-100 control, 5d: 1.08% | PGI release, % of the Tx-100 control, 12d: 2.05%

O=C(Nc1ccnc(-c2cccnc2)n1)c1cc(C(F)(F)F)cc(C(F)(F)F)c1 [MMV019838]
PGI release, % of the Tx-100 control, 5d: 1.37% | PGI release, % of the Tx-100 control, 12d: -0.96%

Cc1nn(C)cc1C(C)Nc1nncc(-c2ccc(C(F)(F)F)cc2)n1 (stereo not shown) [MMV019993]
PGI release, % of the Tx-100 control, 5d: -0.77% | PGI release, % of the Tx-100 control, 12d: -1.30%

COc1cccc(CC(=O)N2CCC(n3c(C)nc4ccc(F)cc43)CC2)c1 [MMV020081]
PGI release, % of the Tx-100 control, 5d: -1.15% | PGI release, % of the Tx-100 control, 12d: -0.33%

CC1CC1C(=O)NC1CCN(CC2(c3ccccc3)CCCCC2)CC1 (stereo not shown) [MMV020120]
PGI release, % of the Tx-100 control, 5d: -0.34% | PGI release, % of the Tx-100 control, 12d: -0.45%

CNC(=O)c1cc(S(=O)(=O)N2CCN(c3ccccn3)CC2)cs1 [MMV020136]
PGI release, % of the Tx-100 control, 5d: -0.32% | PGI release, % of the Tx-100 control, 12d: 0.25%

Cc1cc(C(=O)Nc2ccc(-c3ccccc3)cc2)no1 [MMV020152]
PGI release, % of the Tx-100 control, 5d: 0.07% | PGI release, % of the Tx-100 control, 12d: -0.81%

CC(C)NCC(=O)Nc1cccc(C(=O)Nc2cccc(C(F)(F)F)c2)c1 [MMV020165]
PGI release, % of the Tx-100 control, 5d: 0.28% | PGI release, % of the Tx-100 control, 12d: -0.10%

Cc1ccc(NC(=O)c2cc(S(=O)(=O)NC(C)(C)C)ccc2C)nc1 [MMV020289]
PGI release, % of the Tx-100 control, 5d: -0.85% | PGI release, % of the Tx-100 control, 12d: -0.97%

CC(C(=O)N1CCCC1)N1CCN(S(=O)(=O)c2ccc(C(C)(C)C)cc2)CC1 (stereo not shown) [MMV020291]
PGI release, % of the Tx-100 control, 5d: -0.20% | PGI release, % of the Tx-100 control, 12d: -0.67%

Cc1nnc(NC(=O)c2cn(-c3ccccc3)nc2-c2ccccc2C)o1 [MMV020320]
PGI release, % of the Tx-100 control, 5d: -1.15% | PGI release, % of the Tx-100 control, 12d: 2.11%

COc1ccccc1C(C)NCC(=O)Nc1cc(C(F)(F)F)ccc1Cl (stereo not shown) [MMV020321]
PGI release, % of the Tx-100 control, 5d: 0.0279% | PGI release, % of the Tx-100 control, 12d: 2.67%

CC1CCCN(C(=O)C(C)Nc2cc(Cl)ccc2N2CCOCC2)C1 (stereo not shown) [MMV020388]
PGI release, % of the Tx-100 control, 5d: -0.77% | PGI release, % of the Tx-100 control, 12d: -1.83%

CC(C)C(C(=O)Nc1ccc(S(=O)(=O)N(C)C)cc1)c1ccc(Cl)cc1 (stereo not shown) [MMV020391]
PGI release, % of the Tx-100 control, 5d: -0.90% | PGI release, % of the Tx-100 control, 12d: -4.50%

Cc1ccc(Oc2ccc(NC(=O)CNc3ccccc3N3CCCC3=O)cc2)cc1 [MMV020512]
PGI release, % of the Tx-100 control, 5d: 0.61% | PGI release, % of the Tx-100 control, 12d: 1.80%

COc1ccccc1CNC(=O)c1cc(C2CC2)nc2c1cnn2C(C)C [MMV020517]
PGI release, % of the Tx-100 control, 5d: -0.60% | PGI release, % of the Tx-100 control, 12d: -1.00%

Cc1cc2ccccc2n1CC(=O)N1CC(C(=O)N2CCCCC2)Oc2ccccc21 (stereo not shown) [MMV020520]
PGI release, % of the Tx-100 control, 5d: -0.40% | PGI release, % of the Tx-100 control, 12d: -0.48%

O=C(NC1CC1)c1ccc(N2CCOc3ccc(Cl)cc32)s1 [MMV020537]
PGI release, % of the Tx-100 control, 5d: 1.89% | PGI release, % of the Tx-100 control, 12d: 0.98%

CC(C)C(NC(=O)Cc1cccc2ccccc12)C(=O)Nc1cccc(C#N)c1 (stereo not shown) [MMV020591]
PGI release, % of the Tx-100 control, 5d: -0.00326% | PGI release, % of the Tx-100 control, 12d: 0.72%

Cc1noc(C)c1C(=O)N1CCCC(c2[nH]c3c(C)cccc3c2-c2ccncc2)C1 (stereo not shown) [MMV020623]
PGI release, % of the Tx-100 control, 5d: -0.37% | PGI release, % of the Tx-100 control, 12d: -4.10%

COc1ccc(-c2cncc3ccc(C(=O)NCCCn4ccnc4)nc23)cc1 [MMV020670]
PGI release, % of the Tx-100 control, 5d: 0.79% | PGI release, % of the Tx-100 control, 12d: -1.21%

COc1ccc(Cl)cc1NC(=O)CN(C)C(=O)c1cnn(-c2ccccc2)n1 [MMV020710]
PGI release, % of the Tx-100 control, 5d: -1.15% | PGI release, % of the Tx-100 control, 12d: -0.53%

CC(C)(C)c1cc(C(=O)Nc2cccnc2)cc(C(=O)Nc2cccnc2)c1 [MMV020982]
PGI release, % of the Tx-100 control, 5d: 1.45% | PGI release, % of the Tx-100 control, 12d: 12.41%

CO/C=C(/C(=O)OC)c1ccccc1Oc1cc(Oc2ccccc2C#N)ncn1 [MMV021057, Azoxystrobin]
PGI release, % of the Tx-100 control, 5d: -0.65% | PGI release, % of the Tx-100 control, 12d: -0.77%

Cc1cc(NCC(C)C)c2[nH]nc(-c3ccccc3)c2n1 [MMV021375]
PGI release, % of the Tx-100 control, 5d: -3.66% | PGI release, % of the Tx-100 control, 12d: 7.43%

Cc1cc(NCCc2ccccc2)nc(NC(=N)Nc2ccc(Cl)cc2)n1 [MMV021660]
PGI release, % of the Tx-100 control, 5d: 5.66% | PGI release, % of the Tx-100 control, 12d: 4.49%

CN1CCC(NCc2cccc(-c3ccc(S(=O)(=O)NCc4ccccc4)cc3)c2)CC1 [MMV022029]
PGI release, % of the Tx-100 control, 5d: 0.43% | PGI release, % of the Tx-100 control, 12d: 0.82%

CCN(CC)CCCN1CCN(C(=O)c2cccc(-c3noc(C(F)(F)F)n3)c2)CC1 [MMV022236]
PGI release, % of the Tx-100 control, 5d: -0.66% | PGI release, % of the Tx-100 control, 12d: -2.62%

O=C(Nc1ccc(N2CCNCC2)cc1)c1ccn2ncc(-c3cccc(Cl)c3)c2n1 [MMV022478]
PGI release, % of the Tx-100 control, 5d: 20.71% | PGI release, % of the Tx-100 control, 12d: 24.08% | PGI release, % of Tx-100 control, average, 5d: 17.77% | PGI release, % of Tx-100 control, average, 12d: 19.68%

c1ccc2c(c1)CN(CC1CC1)CC1(CCN(Cc3c[nH]c4cnccc34)CC1)O2 [MMV023183]
PGI release, % of the Tx-100 control, 5d: -0.64% | PGI release, % of the Tx-100 control, 12d: -1.24%

Cc1nc(-c2cccc(NCc3ccccc3)c2)[nH]c1C [MMV023227]
PGI release, % of the Tx-100 control, 5d: 0.40% | PGI release, % of the Tx-100 control, 12d: 0.67%

Nc1nccc2ccc(-c3ccc4nccn4c3)cc12 [MMV023233]
PGI release, % of the Tx-100 control, 5d: -0.34% | PGI release, % of the Tx-100 control, 12d: -0.36%

Nc1ncc(-c2cn[nH]c2)cc1-c1nc2cc(Cl)cnc2[nH]1 [MMV023370]
PGI release, % of the Tx-100 control, 5d: -2.33% | PGI release, % of the Tx-100 control, 12d: -3.72%

O=C(NC1CCN(c2ccnc3ccccc23)C1)c1cccc(C(F)(F)F)c1 (stereo not shown) [MMV023388]
PGI release, % of the Tx-100 control, 5d: -0.73% | PGI release, % of the Tx-100 control, 12d: -1.23%

NS(=O)(=O)c1cccc(-c2ccc3ncc(N4CCOCC4)nc3c2)c1 [MMV023860]
PGI release, % of the Tx-100 control, 5d: -0.05% | PGI release, % of the Tx-100 control, 12d: -0.27%

CC(C)(C)c1cc(C(=O)N2CCN(c3nccnc3C#N)CC2)n(Cc2ccccc2)n1 [MMV023949]
PGI release, % of the Tx-100 control, 5d: -0.59% | PGI release, % of the Tx-100 control, 12d: -1.14%

O=C(Nc1cccc(-c2ccc(NCCCN3CCCC3)nc2)c1)c1ccccc1 [MMV023953]
PGI release, % of the Tx-100 control, 5d: -0.23% | PGI release, % of the Tx-100 control, 12d: -3.47%

c1cncc(NCc2ccc(-c3cc4ccncc4cc3OC3CCNCC3)s2)c1 [MMV023969]
PGI release, % of the Tx-100 control, 5d: -3.87% | PGI release, % of the Tx-100 control, 12d: -3.02%

COc1ccc(-c2cnc3ccc(N4CCCC4)nn23)cc1OC [MMV023985]
PGI release, % of the Tx-100 control, 5d: -0.66% | PGI release, % of the Tx-100 control, 12d: -1.01%

O=C(Nc1ccccc1)c1ccc(-c2cc3ccncc3cc2OC2CCNCC2)s1 [MMV024035]
PGI release, % of the Tx-100 control, 5d: 1.01% | PGI release, % of the Tx-100 control, 12d: 1.04%

NS(=O)(=O)c1cncc(-c2ccc3nccc(-c4cn[nH]c4)c3n2)c1 [MMV024101]
PGI release, % of the Tx-100 control, 5d: 0.37% | PGI release, % of the Tx-100 control, 12d: 1.27%

Cc1ccc(S(=O)(=O)n2cc(-c3ccnc(N)c3)c3cc(Br)cnc32)cc1 [MMV024114]
PGI release, % of the Tx-100 control, 5d: 3.26% | PGI release, % of the Tx-100 control, 12d: 5.70%

CN(C)CCNC(=O)N1CCCN(c2ncnc3cc(-c4ccccc4)sc23)CC1 [MMV024195]
PGI release, % of the Tx-100 control, 5d: 1.72% | PGI release, % of the Tx-100 control, 12d: 5.34%

Cc1ccc2[nH]c(C3CCCNC3)c(-c3ccncc3)c2c1 (stereo not shown) [MMV024311]
PGI release, % of the Tx-100 control, 5d: -0.16% | PGI release, % of the Tx-100 control, 12d: -1.97%

O=C(NC1CC1)c1ccc(N2CCC(Cc3ccccc3)CC2)nc1 [MMV024397]
PGI release, % of the Tx-100 control, 5d: 0.75% | PGI release, % of the Tx-100 control, 12d: 37.30% | PGI release, % of Tx-100 control, average, 5d: 0.18% | PGI release, % of Tx-100 control, average, 12d: -0.13%

O=C(Nc1cccc(Cl)c1)c1cnc(N2CCN(c3ccncc3)CC2)c(Cl)c1 [MMV024406]
PGI release, % of the Tx-100 control, 5d: 4.18% | PGI release, % of the Tx-100 control, 12d: 4.57%

CN(C(=O)c1cc2c(-c3cncnc3)cccc2[nH]1)c1ccccc1 [MMV024443]
PGI release, % of the Tx-100 control, 5d: -1.32% | PGI release, % of the Tx-100 control, 12d: 3.28%

Cc1cccc(C(=O)Nc2ccnc(N(C)C3CCN(CC(C)C)CC3)c2)c1 [MMV024829]
PGI release, % of the Tx-100 control, 5d: 0.62% | PGI release, % of the Tx-100 control, 12d: -0.07%
